Test results: patent publication US20230087766A1, “METHODS OF REACTIVATING LATENT HUMAN IMMUNODEFICIENCY VIRUS AND RELATED COMPOSITIONS” (priority 2017, published 2023)

Assays:
Type in all cases: cell-based
[1] = tested on: latent HIV in resting CD4+ T cells from HIV-infected individuals under ART; experiment: Quantitative Viral Outgrowth Assay (QVOA), p24 ELISA; conditions: resting CD4+ T cells from 5 HIV-infected individuals under ART; ex vivo
Method: It was tested whether the histone crotonylation inducer, sodium crotonate, can reactivate latent HIV reservoirs from a patient under ART. Peripheral blood samples were obtained from 5 HIV-infected individuals with undetectable plasma viral loads and higher CD4+ T cell numbers (see Table 1). One million resting CD4+ T cells were treated with IL-2, PHA+IL-2, or IL-2+Na-Cro, and HIV p24 production was measured by QVOA using p24 ELISA as a measure of HIV reactivation.
Quantitative Viral Outgrowth Assay: Peripheral blood mononuclear cells (PBMC) were obtained from HIV-infected individuals on suppressive ART (n=5) by continuous-flow leukopheresis. Isolation of resting CD4+ T cells and quantification of replication competent virus was performed as previously described (see S. Dandekar, et al. Current HIV/AIDS reports 4, 10-15 (2007)). […] Cultures were scored as positive if p24 was detected at day 15 and was increased in concentration at day 19. […]

[2] = tested on: latent HIV (HIV LTR-driven transcription) in J-Lat A1 cells; conditions: for increase in reactivation of latent HIV in combination with Na-Cro as compared to single treatment: J-Lat A1 cells pretreated with Na-Cro, then the LRA added; for increase in reactivation of latent HIV in combination with Na-Cro as compared to single treatment / reactivation of latent HIV by epigenetic modifiers: RT-qPCR; for reactivation of latent HIV by epigenetic modifiers: 30 mM Na-Cro, 500 nM SAHA, 2 μM GSK343 or 5 μM AZA-dc
Method: (§1) Cell culture: J-Lat Al cells (derived from Jurkat cells harboring HIV LTR-Tat-GFP gene) and U1 cells (promonocytic cell line harboring one copy of HIV genome with defective tat gene) were obtained from NIH AIDS Reagent Program and cultured at 37° C. with 5% CO2 in RPM11640 medium containing 10% FBS and 1% penicillin-streptomycin as previously described (see G. Jiang, et al. PLoS Pathogens 11, e1005066 (2015)).
(§2) For inhibiting ACSS2 and crotonylation, cells were pretreated with ACSS2 inhibitor, AR12 (SELLECK CHEMICALS™, Houston, Tex.), for 30 minutes, followed by Na-Cro treatment for 4 or 18 hours.
(§3) Real-Time PCR Analysis: HIV gene expression was measured using real-time PCR in J-Lat Al cells treated with LRAs. Total nucleic acid was extracted using RNEASY™ Kit, genomic DNA digested using DNase I and total RNA reverse transcribed using Superscript III to synthesize cDNA. […] […] TAMRA-3′ (SEQ ID NO:3).

[3] = tested on: latent HIV in U1 cells; experiment: Reactivation of latent HIV in U1 cells by RT-qPCR
Method: as §1, §2, §3

[4] = tested on: HIV LTR in J-Lat A1 cells; experiment: Chromatin immunoprecipitation (ChIP) at the HIV LTR; conditions: pretreatment with AR12, then Na-Cro
Excerpt: FIG. 2 is a series of images and graphs showing that histone crotonylation by sodium crotonate addition re-programs histone tails at the HIV LTR. Panel A illustrates that Na-Cro addition increased global expression of H3K4Cro, H3K4Ac, and H3K18Ac while decreasing H3K27Me3. Panel B illustrates expression of transcription factors after Na-Cro addition in J-Lat Al cells. Panels C-E illustrate that Na-Cro addition re-programmed histone tails at the HIV LTR. Chromatin immunoprecipitation (ChIP) assay was performed by using anti-H3K4Cr, anti-H3K4Ac, and anti-H3K27Me3 antibodies after J-Lat Al cells were treated with 30 mM Na-Cro for 4 hours. PCR primers were specific for the HIV LTR region.
(§4) FIG. 7 is a series of graphs showing that induction of de-crotonylation of histone tail at HIV LTR is independent of SIRTs. Panel A illustrates that J-Lat Al cells were pre-treated with either 50 μM RSV or 1 mM NAM, followed by 30 mM Na-Cro addition to reactivate latent HIV expression. Untreated controls were compared with positive controls involving individual treatment of Na-Cro, RSV, or NAM. *, p<0.05; **, p<0.01 compared with control treatment. #, p<0.05 compared with Na-Cro treatment. Panel B illustrates that gene expression of sirt1 or sirt3 was measured by RT-qPCR in J-Lat Al cells treated with either 25 μM RSV, 50 μM RSV, or 1 mM NAM. *, p<0.05 and **, p<0.01 compared with control treatment. Panels C and D illustrate that histone crotonylation induces binding of SIRT3 and SIRT1 at the HIV LTR. J-Lat Al cells were treated with 30 mM Na-Cro for 4 hours and analyzed by ChIP assays using anti-SIRT1 or anti-SIRT3 antibodies. *, p<0.05 compared with control treatment.
Chromatin Immunoprecipitation (ChIP): J-Lat Al cells (2.5 to 5 million) were utilized in ChIP assays with anti-H3K18Ac, anti-H3K4Cr, anti-H3K27Me3, anti-H3K4Ac, anti-SIRT3 (CELL SIGNALING TECHNOLOGY®), and anti-SIRT1 (CELL SIGNALING TECHNOLOGY®) antibodies. ChIP assays were performed using […]® Kit from CELL SIGNALING TECHNOLOGY® as per the manufacturer's recommendations. Samples were cross-linked using formaldehyde and 150-1000 bp fragments were made using Micrococcal Nuclease digestion and 7 cycles of 30 seconds on/30 seconds off sonication. Antibodies were used to probe respective proteins. Purification of DNA was performed using the […]® Kit Protocol. Purified ChIP DNA was used in SYBR® Green qPCR using ChIP primers specific for HIV LTR.

[5] = tested on: latent HIV in primary CD4+ T cells from HIV-infected patients under suppressive ART; experiment: HIV transcription by ddPCR in primary CD4+ T cells from HIV-infected patients; conditions: 6 hours
Method: Panels A-C illustrate that primary CD4+ T cells were treated with […] PMA 2 plus 2 μg/ml ionomycin, 12 nM PEP005, 40 mM Na-Cro, or 12 nM PEP005 combined with 40 mM Na-Cro for 6 hours. Viral transcription from total RNA was analyzed by RT-ddPCR with primers targeting initiation (TAR region) (see panel A), elongation (long LTR) (see panel B), or full transcription (poly A region) (see panel C) of the HIV genome. Panel D illustrates a working model of epigenetic regulation of HIV latency/transcription by histone crotonylation.
To validate this finding in the ex vivo primary CD4+ T cells from patients the peripheral blood samples from 6 HIV-infected patients under suppressive ART were obtained. They had undetectable plasma viral load (<20 copies/ml plasma) and >400 CD4+ T cell number per […] (see Table 1). Primary CD4+ T cells were treated with PMA/Ionomycin, PEP005, Na-Cro, or PEP005 in combination with Na-Cro for 6 hours. HIV transcription following reactivation was measured by digital droplet PCR (ddPCR) targeting TAR region (initiation), long LTR region (elongation), or Poly A region (full transcription) of HIV genome (see G. Jiang, et al. PLoS pathogens 11, e1005066 (2015); P. Kaiser, et al. Journal of virological methods 242, 1-8 (2017); and L. Shan, et al. Journal of Virology 87, 6521-6525 (2013)).
Primary CD4+ T Cell Isolation, Treatment, and Digital Droplet PCR Assays: Peripheral blood samples were obtained from HIV-infected individuals (age ranging from 46-62 years old) on suppressive ART for >8 years (n=6). The plasma viral loads were below the detective level (<20 copies/ml plasma) and the average CD4+ T cell number was 664.4±180.5 cells/ml. The primary CD4+ T cells were isolated using the EASYSEP™ kit ([…]™ Technologies Inc., Vancouver, BC, Canada) as previously described (see G. Jiang, et al. PLoS pathogens 11, el 005066 (2015) and G. Jiang, et al. AIDS 28, 1555-1566 (2014)). The purified CD4+ T cells were plated at a density of 0.5-1×10^6 cells and treated with Control, 200 ng/ml PMA plus 2 μM lonomycin, 12 nM PEP005, 40 mM Na-Cro, or 12 nM PEP005 plus 40 mM Na-Cro for 6 hours. Cell pellets were collected for RNA isolation. Initiation, elongation, or full transcription of HIV was analyzed with ddPCR assays as reported before (see G. Jiang, et al. PLoS pathogens 11, e1005066 (2015); P. Kaiser, et al. Journal of virological methods 242, 1-8 (2017); and L. Shan, et al. Journal of virology 87, 6521-6525 (2013)).

[6] = tested on: sirt3; experiment: sirt3 gene expression by RT-qPCR in J-Lat A1 cells; conditions: 25 μM or 50 μM RSV
Method: as §4

[7] = primary CD4+ T cells of 6 patients, 40 mM Na-Cro or 12 nM PEP005, ddPCR

O=C(CCCCCCC(=O)Nc1ccccc1)NO [SAHA, suberoylanilide hydroxamic acid]
replication-competent HIV recovered (HIV reactivation, QVOA) [1]: able to flush out the latent HIV in these patient cells except for one patient | increase in reactivation of latent HIV in combination with Na-Cro as compared to single treatment [2]: 2.0 fold | HIV reactivation, pretreatment with SAHA followed by Na-Cro addition ([2]; J-Lat A1 cells, 250 nM SAHA then 40 mM Na-Cro overnight): abolished the combination effect | reactivation of latent HIV by epigenetic modifiers ([2]; J-Lat A1 cells): comparable capacity to reactivate latent HIV | HIV reactivation, pretreatment with SAHA followed by Na-Cro addition ([3]; 500 nM SAHA then 40 mM Na-Cro): abolished the combination effect | HIV reactivation, pretreatment with Na-Cro then SAHA, compared with SAHA alone ([3]; 40 mM Na-Cro then 500 nM SAHA, overnight, real-time PCR): enhanced SAHA-reactivation of latent HIV

NCC(=O)Nc1ccc(-n2nc(C(F)(F)F)cc2-c2ccc3c(ccc4ccccc43)c2)cc1 [AR12, reference compound]
decrease in latent HIV reactivation by Na-Cro ([2]; pretreatment with AR12 for 30 minutes, then Na-Cro): > 60% | histone crotonylation at HIV LTR [4]: markedly dampened

C/C=C(/C)C(=O)O[C@H]1C(C)=C[C@]23C(=O)[C@@H](C=C(CO)[C@@H](O)[C@]12O)[C@H]1[C@@H](C[C@H]3C)C1(C)C [PEP005, ingenol-3-angelate]
increase in reactivation of latent HIV in combination with Na-Cro as compared to single treatment [2]: 8 fold | elongation of HIV transcripts (long LTR), patients responding [5, 7]: 5 of 6 patient samples | full-length transcription of HIV (poly A region), patients responding [5, 7]: 5 of 6 patient samples | initiation of HIV transcription (TAR region), patients responding [5, 7]: all six patients | reactivation of latent HIV, combination of Na-Cro with PEP005 ([5]; primary CD4+ T cells, 12 nM PEP005 combined with 40 mM Na-Cro, also higher than PMA/Ionomycin): greater reactivation of latent HIV than either agent alone

CCCc1cc(C)[nH]c(=O)c1CNC(=O)c1cc(-c2ccnc(N3CCN(C)CC3)c2)cc2c1cnn2C(C)C [GSK343]
synergistic effect on HIV reactivation in combination with Na-Cro ([2]; J-Lat A1 cells): did not show any synergistic effect | reactivation of latent HIV by epigenetic modifiers ([2]; J-Lat A1 cells): minimally reactivated latent HIV

Nc1ncn([C@H]2C[C@H](O)[C@@H](CO)O2)c(=O)n1 [AZA-dC]
reactivation of latent HIV by epigenetic modifiers ([2]; J-Lat A1 cells): minimally reactivated latent HIV

CCC/C=C/C=C/C(=O)O[C@H]1/C(=C/C(=O)OC)C[C@H]2C[C@H]([C@@H](C)O)OC(=O)C[C@H](O)C[C@@H]3C[C@H](OC(C)=O)C(C)(C)[C@](O)(C[C@@H]4C/C(=C/C(=O)OC)C[C@H](/C=C/C(C)(C)[C@]1(O)O2)O4)O3 [bryostatin-1]
increase in reactivation of latent HIV in combination with Na-Cro as compared to single treatment [2]: 3.3 fold

Cc1sc2c(c1C)C(c1ccc(Cl)cc1)=N[C@@H](CC(=O)OC(C)(C)C)c1nnc(C)n1-2 [JQ1]
increase in reactivation of latent HIV in combination with Na-Cro as compared to single treatment [2]: 1.8 fold

Oc1ccc(C=Cc2cc(O)cc(O)c2)cc1 [RSV, Resveratrol]
crotonyl-CoA-mediated latent HIV reactivation after pretreatment ([2]; J-Lat A1 cells, 50 μM RSV pretreatment then 30 mM Na-Cro, compared to crotonyl-CoA alone): 27 fold | increase in expression of sirt3 [6]: two to three

NC(=O)c1cccnc1 [NAM, nicotinamide]
viral reactivation after pretreatment ([2]; J-Lat A1 cells, 1 mM NAM pretreatment then 30 mM Na-Cro): less than 4 fold
